From ChEMBL document CHEMBL1135773, “Purine and pyrimidine (P2) receptors as drug targets” (J Med Chem, 2002)

Key:
P2X purinoceptor 1 [1] = target: T1, P2X purinoceptor 1 (Rattus norvegicus, UniProt P47824); assay: The compound was evaluated for antagonist activity against P2X purinoceptor 1 (P2X1) receptor from rat vas deferens; format: functional
P2X purinoceptor 1 [2] = target: T1, P2X purinoceptor 1; assay: Dissociation constant of the compound at P2X purinoceptor 1 (P2X1) from rat vas deferens was reported
[3] = target: P2Y purinoceptor 1 (Cavia porcellus); assay: The compound was evaluated for antagonistic activity at P2Y purinoceptor 1 (P2Y1) from guinea pig taenia coli
P2X purinoceptor 1 [4] = target: T2, P2X purinoceptor 1 (Rattus norvegicus, UniProt P47824); assay: The compound was evaluated for antagonist activity against P2X purinoceptor 1 (P2X1) from rat vas deferens; format: functional
T2 sequence (P47824 whole entry): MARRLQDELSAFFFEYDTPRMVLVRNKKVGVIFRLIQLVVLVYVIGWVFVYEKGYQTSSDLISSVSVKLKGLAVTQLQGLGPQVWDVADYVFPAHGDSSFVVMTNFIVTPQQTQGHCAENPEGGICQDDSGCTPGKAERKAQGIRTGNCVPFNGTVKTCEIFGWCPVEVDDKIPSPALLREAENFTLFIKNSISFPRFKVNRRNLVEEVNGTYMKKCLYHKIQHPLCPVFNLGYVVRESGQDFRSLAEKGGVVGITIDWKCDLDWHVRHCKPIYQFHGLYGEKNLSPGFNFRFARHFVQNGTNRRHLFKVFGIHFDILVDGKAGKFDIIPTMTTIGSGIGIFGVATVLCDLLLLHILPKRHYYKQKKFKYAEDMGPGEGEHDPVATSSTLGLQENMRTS

P2Y purinoceptor 1 [5] = target: P2Y purinoceptor 1 (Homo sapiens, UniProt P47900); assay: Dissociation constant at P2Y purinoceptor 1 (P2Y1) from guinea pig taenia coli; design: species or system Cavia porcellus; details: target entry is the homologue from another species
Sequence of P2Y purinoceptor 1 (Homo sapiens, UniProt P47900) (P47900 whole entry): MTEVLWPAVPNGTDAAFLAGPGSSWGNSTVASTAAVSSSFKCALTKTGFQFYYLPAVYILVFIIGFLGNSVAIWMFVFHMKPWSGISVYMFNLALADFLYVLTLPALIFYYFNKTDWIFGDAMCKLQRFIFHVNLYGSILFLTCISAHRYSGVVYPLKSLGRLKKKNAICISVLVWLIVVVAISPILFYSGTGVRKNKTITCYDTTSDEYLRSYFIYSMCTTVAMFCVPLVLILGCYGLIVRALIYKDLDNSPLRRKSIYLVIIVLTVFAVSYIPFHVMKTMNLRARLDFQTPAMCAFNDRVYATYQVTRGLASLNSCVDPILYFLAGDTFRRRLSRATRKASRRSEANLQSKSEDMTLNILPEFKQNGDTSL

P2Y purinoceptor 12 = P2Y purinoceptor 12 (Rattus norvegicus, UniProt Q9EPX4); assay: Antagonist activity against phospholipase C coupled rat P2Y purinoceptor 12 (P2Y12); format: functional
Sequence of P2Y purinoceptor 12 (Q9EPX4 whole entry): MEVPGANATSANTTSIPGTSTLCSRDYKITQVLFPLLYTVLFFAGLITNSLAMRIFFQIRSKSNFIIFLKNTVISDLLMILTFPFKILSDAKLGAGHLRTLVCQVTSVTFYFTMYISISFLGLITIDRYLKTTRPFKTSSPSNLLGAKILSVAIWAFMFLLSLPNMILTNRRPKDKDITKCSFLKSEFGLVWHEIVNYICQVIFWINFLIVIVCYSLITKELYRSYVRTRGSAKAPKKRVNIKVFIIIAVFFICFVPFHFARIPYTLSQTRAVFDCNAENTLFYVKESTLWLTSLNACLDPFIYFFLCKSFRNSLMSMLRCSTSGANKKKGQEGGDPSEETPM

P2Y purinoceptor 1 [6] = target: P2Y purinoceptor 1 (Meleagris gallopavo, UniProt P49652); assay: Evaluated for antagonist activity agonist phospholipase C coupled P2Y purinoceptor 1 (P2Y1) of turkey erythrocytes; format: functional
Sequence of P2Y purinoceptor 1 (Meleagris gallopavo, UniProt P49652) (P49652 whole entry): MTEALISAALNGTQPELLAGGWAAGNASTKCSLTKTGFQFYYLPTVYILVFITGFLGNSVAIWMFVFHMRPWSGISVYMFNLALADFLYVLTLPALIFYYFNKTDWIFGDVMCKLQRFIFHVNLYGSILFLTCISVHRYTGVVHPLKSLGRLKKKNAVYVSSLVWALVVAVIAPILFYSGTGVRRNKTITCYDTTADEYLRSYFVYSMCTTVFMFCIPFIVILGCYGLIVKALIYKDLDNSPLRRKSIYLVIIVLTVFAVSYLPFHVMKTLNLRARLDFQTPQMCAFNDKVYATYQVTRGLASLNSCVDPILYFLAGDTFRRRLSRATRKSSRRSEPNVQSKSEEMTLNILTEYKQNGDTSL

P2Y purinoceptor 2 [7] = target: T3, P2Y purinoceptor 2 (Homo sapiens, UniProt P41231); assay: Evaluated for agonist activity against phospholipase C coupled recombinant human P2Y purinoceptor 2 (P2Y2); format: functional
T3 sequence (P41231 whole entry): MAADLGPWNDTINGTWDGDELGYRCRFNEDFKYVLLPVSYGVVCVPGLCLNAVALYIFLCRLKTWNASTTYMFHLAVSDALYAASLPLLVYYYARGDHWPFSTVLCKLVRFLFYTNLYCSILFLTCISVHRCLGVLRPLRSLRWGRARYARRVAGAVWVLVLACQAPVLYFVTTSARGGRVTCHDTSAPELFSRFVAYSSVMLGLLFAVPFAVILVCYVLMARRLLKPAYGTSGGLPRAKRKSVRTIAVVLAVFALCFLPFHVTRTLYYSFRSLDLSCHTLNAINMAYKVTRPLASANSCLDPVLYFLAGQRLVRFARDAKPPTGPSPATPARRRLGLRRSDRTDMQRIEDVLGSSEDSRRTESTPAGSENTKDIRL

P2Y purinoceptor 11 = target: T4, P2Y purinoceptor 11 (Homo sapiens, UniProt Q96G91); assay: Agonist activity against phospholipase C coupled human P2Y purinoceptor 11 (P2Y11); format: functional
T4 sequence (Q96G91 whole entry): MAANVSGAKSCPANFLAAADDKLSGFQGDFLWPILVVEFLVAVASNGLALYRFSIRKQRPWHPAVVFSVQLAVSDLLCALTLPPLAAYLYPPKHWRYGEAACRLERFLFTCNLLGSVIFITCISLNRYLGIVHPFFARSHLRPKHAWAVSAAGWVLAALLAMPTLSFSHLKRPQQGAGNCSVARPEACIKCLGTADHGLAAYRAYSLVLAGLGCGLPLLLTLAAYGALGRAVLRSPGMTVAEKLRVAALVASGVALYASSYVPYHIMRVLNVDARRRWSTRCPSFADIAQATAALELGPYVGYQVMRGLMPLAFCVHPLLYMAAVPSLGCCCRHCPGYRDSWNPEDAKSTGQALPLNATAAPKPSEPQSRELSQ

P2X purinoceptor 4 = target: T5, P2X purinoceptor 4 (Homo sapiens, UniProt Q99571); assay: Antagonist activity against recombinant human P2X purinoceptor 4 (P2X4); format: functional
T5 sequence (Q99571 whole entry): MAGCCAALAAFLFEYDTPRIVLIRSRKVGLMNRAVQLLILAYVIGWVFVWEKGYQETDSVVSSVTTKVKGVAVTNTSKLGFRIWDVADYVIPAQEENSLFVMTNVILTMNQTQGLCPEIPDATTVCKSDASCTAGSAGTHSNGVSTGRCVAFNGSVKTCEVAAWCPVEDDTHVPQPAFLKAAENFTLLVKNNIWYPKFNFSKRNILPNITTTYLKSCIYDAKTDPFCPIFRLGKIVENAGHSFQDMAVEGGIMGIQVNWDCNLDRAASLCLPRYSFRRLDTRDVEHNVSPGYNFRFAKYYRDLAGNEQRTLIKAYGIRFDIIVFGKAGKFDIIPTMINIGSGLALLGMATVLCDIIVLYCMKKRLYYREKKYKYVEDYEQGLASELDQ

P2X purinoceptor 2 = target: T6, P2X purinoceptor 2 (Rattus norvegicus, UniProt P49653); assay: Antagonist activity against recombinant rat receptor P2X purinoceptor 2 (P2X2) at 10 uM, expressed in Xenopus oocytes; format: functional, cell-based, Oocyte
T6 sequence (P49653 whole entry): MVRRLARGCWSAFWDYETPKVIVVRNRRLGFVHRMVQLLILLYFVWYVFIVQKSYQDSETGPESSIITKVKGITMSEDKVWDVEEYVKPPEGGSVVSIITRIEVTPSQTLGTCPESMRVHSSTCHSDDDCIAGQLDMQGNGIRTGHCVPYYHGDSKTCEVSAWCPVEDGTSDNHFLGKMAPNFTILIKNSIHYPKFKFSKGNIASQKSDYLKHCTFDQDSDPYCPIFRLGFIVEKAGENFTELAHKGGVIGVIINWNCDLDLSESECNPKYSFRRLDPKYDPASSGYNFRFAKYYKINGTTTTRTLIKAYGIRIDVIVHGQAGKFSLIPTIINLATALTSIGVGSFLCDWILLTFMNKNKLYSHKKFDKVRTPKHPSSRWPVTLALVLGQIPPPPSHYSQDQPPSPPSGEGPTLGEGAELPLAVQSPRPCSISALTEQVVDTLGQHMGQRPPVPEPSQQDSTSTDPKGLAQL

P2Y purinoceptor 2 [8] = target: T3, P2Y purinoceptor 2; assay: The compound was evaluated for antagonistic activity against P2Y purinoceptor 2 (P2Y2); format: functional
[9] = The compound was evaluated for antagonist activity against P2X purinoceptor; format: functional

Compound: Cc1nc(/N=N/c2ccc(C(=O)O)c(Cl)c2)c(COP(=O)(O)O)c(C=O)c1O
- IC50 (P2X purinoceptor 1 [1]): 9.6 µM
- Kd (P2X purinoceptor 1 [2]): 1.6 µM
- Kd [3]: 2.9 µM

Compound: C=CS(=O)(=O)c1cccc(Nc2cc(S(=O)(=O)O)c(N)c3c2C(=O)c2ccccc2C3=O)c1 [UNIBLUE A]
- IC50 (P2X purinoceptor 1 [4]): 7.5 µM
- Kd (P2Y purinoceptor 1 [5]): > 100 µM

Compound: Nc1c(S(=O)(=O)O)cc(Nc2ccc(Nc3nc(Cl)nc(Nc4cccc(S(=O)(=O)O)c4)n3)c(S(=O)(=O)O)c2)c2c1C(=O)c1ccccc1C2=O [RB 2]
- EC50 (P2Y purinoceptor 12): 0.025 µM
- EC50 (P2Y purinoceptor 1 [6]): > 10 µM
- EC50 (P2Y purinoceptor 2 [7]): > 100 µM
- EC50 (P2Y purinoceptor 11): > 100 µM
- EC50 (P2X purinoceptor 4): 128 µM
- EC50 (P2X purinoceptor 2): 0.36 µM

Compound: Cc1cc(-c2ccc(/N=N/c3c(S(=O)(=O)O)cc4cc(S(=O)(=O)O)cc(N)c4c3O)c(C)c2)ccc1/N=N/c1c(S(=O)(=O)O)cc2cc(S(=O)(=O)O)cc(N)c2c1O [TRYPAN BLUE]
- IC50 (P2Y purinoceptor 2 [8]): 171 µM
- IC50 [9]: 386 µM
